From patent publication US8716326B2, “Isoindolinone derivatives, preparation method thereof and a pharmaceutical composition comprising same” (Korea Research Institute of Chemical Technology, priority 2009, dated 2014)

Experiments:
Runx2 = Runx2 activity, 6xOSE2-Luc luciferase reporter in transfected C2C12 cells; format: cell-based, Mouse; conditions: Mus musculus, 24 hrs, read-out: luciferase activity relative to control set as 1
In short: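 Compound exposure of 24 h at 2.5, 5.0, 10 and 20 μM, in 5% FBS DMEM, was applied to transfected C2C12 cells with an OSE2 hexamer-driven luciferase construct reporting Runx2 activity. Read-out: dual-luciferase signal in cell lysates, normalised to equal-volume DMSO control (=1).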

mice calvarias = assay: Mice calvarias loss inhibition, bone loss induced by interleukin-1 in vivo; conditions: IL-1 collagen sponge, 0.2 mg per mouse intraperitoneally, 7 days, vs vehicle
Experimental: Specifically, 5 to 7 ml of collagen (Cellmatrix type I-A; Wako co., Japan, Cat. No. 637-00653) was poured into petri dish (60×15 mm), and lyophlilized. The lyophlilized collagen sponge was made to the desired size which is appropriate to be implanted, and in order to induce local bone loss of mice, interleukin-1 (Peprotech; London, GB) was diluted with phosphate-buffered-saline solution to 2 μg per one mouse to be treated onto collagen sponge. The collagen sponge treated with interleukin-1 was contacted to the surface of mice carvarias through mice scalp incision, was implanted to 5 mice (5-week-male, ICR strain) in the test group and the control group, respectively, and was sutured. 7 days later, the mice were sacrificed to obtain calvarias. The test group was intraperitoneally injected with the dose of 0.2 mg of the compound obtained in Example 8 per one mouse from the next day of surgery to the day before the sacrifice. The control group was intraperitoneally injected with 100 μl of DMSO. After 7 days, the mice were sacrificed, and the extracted calvarias were washed 3-4 times with phosphate-buffered-saline solution and fixed in 4% paraformaldehyde for 24 hrs. Micro-computed tomography scan (SMX-90CT; Shimadzu, Japan) was performed for the fixed mice calvarias and 3-dimensional image thereof was obtained.
Further, bone mineral content (BMC) was measured by using TRI 3D-BON (RATOC system Engineering Co., Tokyo, Japan) based on the 3-dimensional image (see Volume Graphics, VG studio Max 1.2.1).
Histological studies were conducted in order to investigate the number of osteoclastic cells directly relating to bone loss. Specifically, the calvarias were decalcificated (solution was replaced every 2-3 days) with 12% EDTA (pH 7.2-7.4) for 14 days and embedded in paraffin. TRAP staining (Sigma-Aldrich) was performed on the embedded whole calvarias.
In addition, the whole area of osteoclast which is red-stained, that is, TRAP-positive was shown in graph by using image J program.
The procedure of the Experimental Example 3 was repeated except for using the compound obtained in Example 94 instead of the compound obtained in Example 8, to examine the effect on mice calvarias loss inhibition.
Histological studies were conducted in order to investigate the number of osteoclastic cells directly relating to bone loss. Specifically, the calvarias were decalcificated (solution was replaced every 2-3 days) with 12% EDTA (pH 7.2-7.4) for 14 days and embedded in paraffin.
H-E (Hematotoxin-eosin) and TRAP staining (Sigma-Aldrich) were performed on the embedded whole calvarias. The results are given in FIGS. 4b and 4c, respectively. In addition, the whole area of osteoclast of the test and control group was shown in graph by using image J program.

rats calvarias = assay: Bone formation in rats calvarias loss site in vivo; conditions: 8 mm calvarias hole, vs control
Experimental: To investigate the effect of the amide compound according to the present invention on bone formation, bone formation ability of the said compound in the rats calvarias loss site was examined in vivo by using the compounds obtained in Example 8 and 27.
Specifically, the hole of the diameter of 8 mm was made in calavarias of rats by using trephine bur, and the collagen sponge prepared in Experimental Example 3 treated with 0.2 mg of the compound obtained in Example 8 in 15 μl of DMSO was placed at the site of loss. As a control group, the collagen sponge treated with only 100 μl of DMSO was treated at the site of loss. After 6 days from the suture of the calvarias scalp, the rats were sacrificed to obtain calvarias. Micro-computed tomography scan (SMX-90CT; Shimadzu, Japan) was performed and 3-dimensional image thereof was obtained.
Further, bone mineral content (BMC) of the test and control group was measured by using TRI 3D-BON (RATOC system Engineering Co., Tokyo, JP) based on the 3-dimensional image (see, Volume Graphics, VG studio Max 1.2.1). […]
Further, bone mineral content (BMC) of the test and control group was measured by using TRI 3D-BON (RATOC system Engineering Co., Tokyo, JP) based on the 3-dimensional image.

Structure (SMILES) | fold induction at 2.5 µM (Runx2) | fold induction at 5 µM (Runx2) | fold induction at 10 µM (Runx2) | fold induction at 20 µM (Runx2) | bone loss in calvarias (micro-computed tomography) (mice calvarias) | osteoclast (TRAP-positive area) (mice calvarias) | whole bone mineral content (BMC) (mice calvarias) | BMC (bone content) (rats calvarias; collagen sponge with 0.2 mg compound) | BMC (bone content) (rats calvarias; collagen sponge with 0.2 mg or 0.5 mg compound)
COc1cc2c(c(-c3cncnc3)c1OC)CN(Cc1ccc(C(=O)Nc3ccccc3N)cc1)C2=O [Example 8, N-(2-aminophenyl)-4-((5,6-dimethoxy-1-oxo-4-(pyrimidin-5-yl)isoindolin-2-yl)methyl)benzamide] | 28.5 | 33.4 | 36 | 30.1 | suppressed | remarkably reduced | increased | unexpectedly increased | 
Cc1cc(C(=O)NCCCCCC(=O)NO)ccc1-c1ccccc1 [Example 94, N-(5-(hydroxycarbamoyl)pentyl)-3-methyl-4-phenylbenzamide] | 1.6 | 3.4 | 7.5 | 10.7 | suppressed | remarkably reduced |  |  | unexpectedly increased
